Read-outs that look alike come from different tables or passages of the source.
Key:
SFRP-1 [1] = biological target: T1, SFRP-1 (Homo sapiens, UniProt Q8N474); assay: Fluorescence polarization binding assay (competitive displacement of a probe compound from SFRP-1); settings: fluorescence anisotropy, 45 nM SFRP-1, 20 nM probe;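 further: test compound competes with a fluorescent probe held by SFRP-1, seen as a drop in probe anisotropy after incubation in darkness, with anisotropy as function of rising compound dose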
T1 sequence (Q8N474 32-314): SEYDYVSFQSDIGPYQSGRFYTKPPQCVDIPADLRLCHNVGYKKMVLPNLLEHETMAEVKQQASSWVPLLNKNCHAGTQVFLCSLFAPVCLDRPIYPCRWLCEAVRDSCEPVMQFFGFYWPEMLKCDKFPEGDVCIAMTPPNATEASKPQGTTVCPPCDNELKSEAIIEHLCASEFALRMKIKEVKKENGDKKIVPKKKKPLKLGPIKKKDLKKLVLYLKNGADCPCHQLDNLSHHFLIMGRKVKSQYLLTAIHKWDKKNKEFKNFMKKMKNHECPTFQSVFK

SFRP-1 [2] = biological target: T1, SFRP-1; assay: Cell-based assay for in vitro measurement of SFRP-1/SARP2 antagonist activity (U2OS cells co-transfected with 16x TCF-tk-Luciferase reporter, Wnt and hSFRP-1); settings: for fold induction at 10 µM / fold induction at 15 µM: U2OS; for fold induction at 10 µM: read-out: Fold Induction with SFRP-1, U2OS cells, single dose 10 μM, luciferase reporter, fold induction over SFRP-1 control;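 on all read-outs here: U2OS cells co-transfected with a TCF-tk luciferase reporter, a Wnt vector, hSFRP-1 or empty vector and CMV-βgal, luciferase luminescence read in cell lysates alongside βgal activity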
[3] = read-out: Fold Induction with SFRP-1, Conc 15 μM, single dose, luciferase reporter, fold induction over SFRP-1 control, cells with SFRP-1
[4] = read-out: Fold Induction without SFRP-1, Conc 15 μM, single dose, luciferase reporter, cells without SFRP-1 (specificity control)
[5] = read-out: Fold Induction with SFRP-1, Conc 15 μM, with SFRP-1, fold induction over SFRP-1 control, single dose
[6] = read-out: Fold Induction without SFRP-1, Conc 15 μM, without SFRP-1, single dose

SMILES | IC50 (SFRP-1 [1]) [nM] | EC50 (SFRP-1 [2]) [nM] | fold induction at 10 µM (SFRP-1 [2]) | fold induction at 15 µM (SFRP-1 [2]; [3]) | fold induction at 15 µM (SFRP-1 [2]; [4]) | fold induction at 15 µM (SFRP-1 [2]; [5]) | fold induction at 15 µM (SFRP-1 [2]; [6])
O=C(O)CCCC(=O)N1CCC(NS(=O)(=O)c2cc(S(=O)(=O)c3ccccc3)ccc2C(F)(F)F)C1 (centres unmarked) [Example 895, 5-oxo-5-[3-({[5-(phenylsulfonyl)-2-(trifluoromethyl)phenyl]sulfonyl}amino)pyrrolidin-1-yl]pentanoic acid] | 190 | 871 | 2.9 | – | – | – | –
COc1ccc2c(c1)CC(NS(=O)(=O)c1cc(S(=O)(=O)c3ccccc3)ccc1C(F)(F)F)C2 (centres unmarked) [Example 991, N-(5-methoxy-2,3-dihydro-1H-inden-2-yl)-5-(phenylsulfonyl)-2-(trifluoromethyl)benzenesulfonamide] | 80 | 2640 | – | – | – | – | –
COc1cccc(S(=O)(=O)c2ccc(Cl)c(S(=O)(=O)NC3CCOCC3)c2)c1 [Example 606, 2-chloro-5-[(3-methoxyphenyl)sulfonyl]-N-(tetrahydro-2H-pyran-4-yl)benzenesulfonamide] | 8000 | – | – | 1.9 | 1 | – | –
CC(C)c1ccc(S(=O)(=O)c2ccc3c(ccn3C)c2)cc1S(=O)(=O)NCCc1ccccn1 [Example 597, 2-isopropyl-5-[(1-methyl-1H-indol-5-yl)sulfonyl]-N-(2-pyridin-2-ylethyl)benzenesulfonamide] | 400 | – | – | 3.7 | 1.3 | – | –
CNCCCNS(=O)(=O)c1cc(S(=O)(=O)c2ccccc2)ccc1C(F)(F)F [Example 929, N-[3-(methylamino)propyl]-5-(phenylsulfonyl)-2-(trifluoromethyl)benzenesulfonamide] | 4000 | 3320 | 2.9 | – | – | – | –
Cc1ccc(S(=O)(=O)c2ccccc2)cc1S(=O)(=O)NC1CCN(S(=O)(=O)c2cn(C)cn2)CC1 [Example 481, 2-methyl-N-{1-[(1-methyl-1H-imidazol-4-yl)sulfonyl]piperidin-4-yl}-5-(phenylsulfonyl)benzenesulfonamide] | 1200 | – | – | – | – | 1.8 | 1
N[C@H]1CC[C@H](NS(=O)(=O)c2cc(S(=O)(=O)c3ccccc3)ccc2C(F)(F)F)CC1 [Example 959, N-(trans-4-aminocyclohexyl)-5-(phenylsulfonyl)-2-(trifluoromethyl)benzenesulfonamide] | 400 | 390 | 3.7 | – | – | – | –
CC(C)(C)c1ccc(S(=O)(=O)c2ccccc2)cc1S(=O)(=O)NCCc1ccccn1 [Example 461, 2-tert-butyl-5-(phenylsulfonyl)-N-(2-pyridin-2-ylethyl)benzenesulfonamide] | 700 | – | – | – | – | 1.7 | 1
Cc1ccc(S(=O)(=O)c2ccc(Br)cc2)cc1S(=O)(=O)NCCc1ccccn1 [Example 381, 5-[(4-bromophenyl)sulfonyl]-2-methyl-N-(2-pyridin-2-ylethyl)benzenesulfonamide] | 4000 | – | – | – | – | 2.1 | 0.8
Cc1ccc(S(=O)(=O)c2ccccc2)cc1S(=O)(=O)NC1CCN(S(C)(=O)=O)CC1 [Example 478, 2-methyl-N-[1-(methylsulfonyl)piperidin-4-yl]-5-(phenylsulfonyl)benzenesulfonamide] | 1300 | – | – | – | – | 2.3 | 1
CN(CCNS(=O)(=O)c1cc(S(=O)(=O)c2ccccc2)ccc1C(F)(F)F)C(=O)NC(C)(C)C [Example 829, N-{2-[[(tert-butylamino)carbonyl](methyl)amino]ethyl}-5-(phenylsulfonyl)-2-(trifluoromethyl)benzenesulfonamide] | 400 | 1320 | 2.7 | – | – | – | –
CNc1ccc(S(=O)(=O)c2ccc(C(F)(F)F)c(S(=O)(=O)NC3CCNCC3)c2)cc1 [Example 842, 5-{[4-(methylamino)phenyl]sulfonyl}-N-piperidin-4-yl-2-(trifluoromethyl)benzenesulfonamide] | 190 | 670 | 4.2 | – | – | – | –
Cc1ccc(S(=O)(=O)c2ccccc2)cc1S(=O)(=O)NC1CCN(Cc2ccccc2)CC1 [Example 413, N-(1-benzylpiperidin-4-yl)-2-methyl-5-(phenylsulfonyl)benzenesulfonamide] | 5000 | – | – | – | – | 2.2 | 1.4
CN(CCNS(=O)(=O)c1cc(S(=O)(=O)c2ccccc2)ccc1C(F)(F)F)C(=O)c1ccc(CBr)cc1 [Example 983, 4-(bromomethyl)-N-methyl-N-[2-({[5-(phenylsulfonyl)-2-(trifluoromethyl)phenyl]sulfonyl}amino)ethyl]benzamide] | 800 | 1140 | – | – | – | – | –
COC(=O)N1CCC(NS(=O)(=O)c2cc(S(=O)(=O)c3ccccc3)ccc2C)CC1 [Example 488, methyl 4-({[2-methyl-5-(phenylsulfonyl)phenyl]sulfonyl}amino)piperidine-1-carboxylate] | 2100 | – | – | 2 | 0.9 | – | –
CN(CCNS(=O)(=O)c1cc(S(=O)(=O)c2ccccc2)ccc1C(F)(F)F)C(=O)Nc1ccccc1 [Example 826, N-{2-[(anilinocarbonyl)(methyl)amino]ethyl}-5-(phenylsulfonyl)-2-(trifluoromethyl)benzenesulfonamide] | 700 | 1920 | 3.5 | – | – | – | –
COCC(=O)N1CCC(NS(=O)(=O)c2cc(S(=O)(=O)c3ccc(F)cc3)ccc2C)CC1 [Example 589, 5-[(4-fluorophenyl)sulfonyl]-N-[1-(methoxyacetyl)piperidin-4-yl]-2-methylbenzenesulfonamide] | 4000 | – | – | 2.6 | 1.3 | – | –
Cc1ccc(S(=O)(=O)c2ccccc2)cc1S(=O)(=O)NC1CCN(C(=O)c2cccnc2)CC1 [Example 516, 2-methyl-5-(phenylsulfonyl)-N-[1-(pyridin-3-ylcarbonyl)piperidin-4-yl]benzenesulfonamide] | 2600 | – | – | 3 | 1 | – | –
COC(=O)C1CCC(NS(=O)(=O)c2cc(S(=O)(=O)c3ccccc3)ccc2C(F)(F)F)CC1 (centres unmarked) [Example 946, methyl 4-({[5-(phenylsulfonyl)-2-(trifluoromethyl)phenyl]sulfonyl}amino)cyclohexanecarboxylate] | 500 | 1460 | 3 | – | – | – | –
O=C(O)CN1CCC(CCNS(=O)(=O)c2cc(S(=O)(=O)c3ccccc3)ccc2C(F)(F)F)CC1 [Example 944, {4-[2-({[5-(phenylsulfonyl)-2-(trifluoromethyl)phenyl]sulfonyl}amino)ethyl]piperidin-1-yl}acetic acid] | 1700 | 1440 | 2.9 | – | – | – | –
CN(CCNS(=O)(=O)c1cc(S(=O)(=O)c2ccccc2)ccc1C(F)(F)F)C(=O)N[C@@H]1CCCN(C(=O)OC(C)(C)C)C1 [Example 1009, tert-butyl (3R)-3-[({methyl[2-({[5-(phenylsulfonyl)-2-(trifluoromethyl)phenyl]sulfonyl}amino)ethyl]amino}carbonyl)amino]piperidine-1-carboxylate] | 210 | 945 | – | – | – | – | –
CC(C)c1ccc(S(=O)(=O)c2cc(Cl)cc(Cl)c2)cc1S(=O)(=O)NCCc1ccccn1 [Example 505, 5-[(3,5-dichlorophenyl)sulfonyl]-2-isopropyl-N-(2-pyridin-2-ylethyl)benzenesulfonamide] | 700 | – | – | 2.3 | 1 | – | –
COC(=O)c1ccc(NC(=S)N2CCC(NS(=O)(=O)c3cc(S(=O)(=O)c4ccc(F)cc4)ccc3C(C)C)CC2)cc1 [Example 696, methyl 4-[({4-[({5-[(4-fluorophenyl)sulfonyl]-2-isopropylphenyl}sulfonyl)amino]piperidin-1-yl}carbonothioyl)amino]benzoate] | 1100 | 14700 | 2.2 | – | – | – | –
O=S(=O)(NC1CCNCC1)c1cc(S(=O)(=O)c2cccc(Br)c2)ccc1C(F)(F)F [Example 1034, 5-[(3-bromophenyl)sulfonyl]-N-piperidin-4-yl-2-(trifluoromethyl)benzenesulfonamide] | 500 | 1670 | – | – | – | – | –
CC(C)c1ccc(S(=O)(=O)c2ccc(F)cc2)cc1S(=O)(=O)NCC1CCOCC1 [Example 445, 5-[(4-fluorophenyl)sulfonyl]-2-isopropyl-N-(tetrahydro-2H-pyran-4-ylmethyl)benzenesulfonamide] | 1100 | – | – | – | – | 2.9 | 1.2
O=C(c1ccccc1)c1cccc(C(=O)N2CCC(NS(=O)(=O)c3cc(S(=O)(=O)c4ccccc4)ccc3C(F)(F)F)CC2)c1 [Example 801, N-[1-(3-benzoylbenzoyl)piperidin-4-yl]-5-(phenylsulfonyl)-2-(trifluoromethyl)benzenesulfonamide] | 180 | 1080 | 3.4 | – | – | – | –

— US20060276464A1, “Diarylsulfone sulfonamides and use thereof” (Wyeth, priority 2005, published 2006)
